Experimental data as given in patent publication US20230149419A1, “COMPOSITION FOR PREVENTING OR TREATING NEUROINFLAMMATORY DISEASES, COMPRISING CHLORPROMAZINE” (GliaCellTech Inc., priority 2020, published 2023).

Assays:
[1] = tested on: primary microglia from wild-type mice; experiment: LPS-induced cytokine mRNA expression in primary microglia (qRT-PCR), wild-type; assay type: cell-based, mouse
Experimental: (§1) Primary microglia were obtained from wild-type mice and Psen2^N141I/+ mice with Alzheimer's disease. Specifically, brains were excised from neonatal mice 1 to 3 days old and cells were obtained therefrom. The cells were cultured in Dulbecco's modified Eagle's medium (DMEM, Corning) supplemented with 10% heat-inactivated fetal bovine serum (HI-FBS, Hyclone) and 1% penicillin-streptomycin (Hyclone). Primary microglia were isolated in vitro by tapping after 12 days of culturing. Purity of primary microglia was estimated by immunostaining with an antibody against Iba-1, which is a microglial marker.
(§2) In this regard, the primary microglia were preincubated with or without 0.5 μM chlorpromazine for 30 min before LPS treatment. Anti-inflammatory effects were compared and analyzed between the test groups.
(§3) The culture of each group was measured for microglial mRNA expression levels of the target cytokines by qRT-PCR (quantitative RT-PCR). Specifically, RNA was isolated from the microglia and cDNA was synthesized using an ImProm-II Reverse Transcriptase kit (Promega). PCR primers were commercially available (Cosmo Genetech). qRT-PCR was performed using Taq Polymerase (Invitrogen) and mouse cDNA-specific primers listed in Table 6, below. In addition, TOPreal™ qPCR 2×PreMIX (SYBR Green with low ROX) (Enzynomics) was used. Amplification (50 cycles) was performed for 50 cycles with all primers in a CFX96 Real-Time System (Bio-Rad). Actb was used as the reference genes for normalization.

[2] = tested on: primary microglia from Psen2^N141I/+ mice with Alzheimer's disease; experiment: LPS-induced inflammatory cytokine secretion in primary microglia (ELISA), Psen2 mutation; assay type: cell-based, mouse
Experimental: as §1, §2

[3] = tested on: primary microglia from wild-type mice; experiment: LPS-induced inflammatory cytokine secretion in primary microglia (ELISA), wild-type; assay type: cell-based, mouse
Experimental: as §1, §2

wild-type mice = experiment: Serum cytokine levels after low-concentration LPS injection, wild-type mice
Experimental: (§4) To investigate neuroinflammation at various concentrations of LPS, blood was extracted from cheek veins in the wild-type mice in group 2 and the mouse model of Alzheimer's disease in group 4 20 hours after the injection of LPS. The sera obtained by centrifugation were quantitatively analyzed for IL-6, TNFα, CCL2, CXCL1, and CCL5 by using ELISA kit (R&D Systems) according to the manufacturer's instruction. In addition, the same procedure was conducted for the wild-type mice without LPS injection of group 1 and the Psen2^N141I mutation mouse model of Alzheimer's disease of group 3 to obtain sera which were then analyzed for the proteins by using the ELISA kit according to the manufacturer's instruction.
(§5) The wild-type mice and the Psen2 mutation mouse model of Alzheimer's disease obtained in Example 1 were intraperitoneally injected with chlorpromazine (0.25 mg/body weight kg) at 14:00 and then with such a low concentration of LPS (0.35 μg/kg) as to be ineffective for inflammation in wild-type mice at 18:00 (Zeitgeber time light-on at 11:00 and 07:00). After 20 hours, the mice were monitored for inflammatory responses and memory behavior. The concentration of chlorpromazine (0.25 mg/body weight kg) used in this assay is tens- to hundreds-fold lower than those conventionally used as an antipsychotic (25 mg/injection, 3 times/day).
(§6) After the experiment conducted as in the scheme of FIG. 11A, the wild-type and the Psen2^N141I/+ Alzheimer's disease mice, both intraperitoneally injected with LPS, were analyzed for inflammatory response according to chlorpromazine treatment as measured for serum levels of the circadian clock-controlled cytokines (IL-6, CXCL1, CCL2, and CCL5) by ELISA as in Example 2.

[4] = tested on: primary microglia from Psen2 mutation mouse model of Alzheimer's disease; experiment: IL-1β secretion after LPS and inflammasome activation (nigericin/ATP), Psen2 mutation microglia; assay type: cell-based; conditions: for IL-1β secreted: chlorpromazine 30 min, LPS 1 μg/mL 3 h
Experimental: as §1
IL-1β is a cytokine released from an activated inflammasome complex in microglia. For secretion of the cytokine, additional treatment with a drug for inducing activation of the inflammasome complex is necessary following LPS-induced inflammation. […] Application of the test groups thus obtained could divide groups 5 to 8 of Example 5-2 into 10 subgroups according to treatment with nigericin and ATP.

[5] = tested on: primary microglia from Psen2^N141I/+ mice with Alzheimer's disease; experiment: LPS-induced cytokine mRNA expression in primary microglia (qRT-PCR), Psen2 mutation; assay type: cell-based, mouse
Experimental: as §1, §2, §3

[6] = tested on: elderly with schizophrenia; conditions: taken for a long time at the current market dose; cited from earlier work
[7] = tested on: primary microglia from Psen2 mutation (KI/+) mouse model of Alzheimer's disease; experiment: fAβ42-induced cytokine secretion in primary microglia (ELISA), Psen2 mutation; assay type: cell-based
Experimental: as §1
Specifically, FITC-conjugated amyloid beta 1-42 was prepared according to the follow reference (Cho, M.-H. et al. “Autophagy in microglia degrades extracellular β-amyloid fibrils and regulates the NLRP3 inflammasome.” Autophagy 10, 1761-1775 (2014)).
The primary cultures of microglia prepared in Example 5-1 from the Psen2 mutation (KI/+) mouse model of Alzheimer's disease and the wild-type (WT) mice were directly treated with 4 μM of the fibrilized amyloid beta 1-42 (fAβ42), followed by incubation with or without 0.5 μM chlorpromazine.

[8] = tested on: Psen2^N141I/+ Alzheimer's disease mice; experiment: Serum cytokine levels after low-concentration LPS injection, Psen2 mutation mice
Experimental: as §4, §5, §6

[9] = WT microglia, LPS 1 μg/mL 12 h, 0.5 μM chlorpromazine (Group 6)
[10] = KI/+ microglia, LPS 1 μg/mL 12 h, preincubated 0.5 μM chlorpromazine 30 min (Group 8)
[11] = Psen2 mutation microglia, groups 7 vs 8, chlorpromazine 0.5 μM, LPS
[12] = WT microglia, LPS 1 μg/mL 12 h, preincubated 0.5 μM chlorpromazine 30 min (Group 6)
[13] = chlorpromazine 0.25 mg/kg i.p., LPS 0.35 μg/kg i.p., 20 h after LPS (Group 38)
[14] = KI/+ microglia, LPS 1 μg/mL 12 h, 0.5 μM chlorpromazine (Group 8)
[15] = KI/+ microglia, 4 μM fAβ42, 0.5 μM chlorpromazine (Group 26)
[16] = Alzheimer's disease model mice, chlorpromazine 0.25 mg/kg i.p., LPS 0.35 μg/kg i.p., 20 h after LPS (Group 40)

CN(C)CCCN1c2ccccc2Sc2ccc(Cl)cc21 [CPZ, 3-(2-chloro-10H-phenothiazin-10-yl)-N,N-dimethyl-propan-1-amine]
Inflammatory cytokine expression Ccl2 (mRNA) [1, 9]: 0.907 fold
Inflammatory cytokine expression Ccl5 (mRNA) [1, 9]: 1.113 fold
Inflammatory cytokine expression Cxcl1 (mRNA) [1, 9]: 0.968 fold
Inflammatory cytokine expression Tnf (mRNA) [1, 9]: 1.066 fold
Inflammatory cytokine expression Il-6 (mRNA) ([1]; WT microglia, LPS 1 μg/mL 12 h, 0.5 μM chlorpromazine (Group 6), normalized to Actb): 0.947 fold
mRNA levels of circadian clock-controlled cytokines (in words) ([1]; wild-type microglia, groups 5 and 6, LPS): not affected
Inflammatory cytokine secreted CCL2 [2, 10]: 734.064 pg/mL
Inflammatory cytokine secreted CCL5 [2, 10]: 804.394 pg/mL
Inflammatory cytokine secreted CXCL1 [2, 10]: 924.907 pg/mL
Inflammatory cytokine secreted IL-6 [2, 10]: 2724.458 pg/mL
Inflammatory cytokine secreted TNF-α [2, 10]: 1532.733 pg/mL
production of IL-6, CXCL1, CCL2, and CCL5 (in words) [2, 11]: decrease the production
production of TNF-α (in words) ([2]; across all the groups (WT and KI/+ microglia), chlorpromazine 0.5 μM, LPS): no impacts
Inflammatory cytokine secreted CCL2 [3, 12]: 948.716 pg/mL
Inflammatory cytokine secreted CCL5 [3, 12]: 948.716 pg/mL
Inflammatory cytokine secreted CXCL1 [3, 12]: 937.727 pg/mL
Inflammatory cytokine secreted TNF-α [3, 12]: 1414.237 pg/mL
Inflammatory cytokine secreted IL-6 ([3]; WT microglia, LPS 1 μg/mL 12 h, preincubated 0.5 μM chlorpromazine 30 min (Group 6), mean): 2228.546 pg/mL
protein levels of circadian clock-controlled cytokines (in words) ([3]; wild-type microglia, groups 5 and 6, chlorpromazine 0.5 μM, LPS): not affected
Inflammatory cytokine secreted IL-6 (serum) (wild-type mice; chlorpromazine 0.25 mg/kg i.p. 4 h before LPS 0.35 μg/kg i.p., 20 h after LPS (Group 38)): 68.214 pg/mL
Inflammatory cytokine secreted CCL2 (serum) (wild-type mice; [13]): 117.032 pg/mL
Inflammatory cytokine secreted CCL5 (serum) (wild-type mice; [13]): 80.808 pg/mL
Inflammatory cytokine secreted CXCL1 (serum) (wild-type mice; [13]): 172.313 pg/mL
Inflammatory cytokine secreted TNF-α (serum) (wild-type mice; [13]): 62.634 pg/mL
production of the circadian clock-controlled cytokines in serum (in words) (wild-type mice; groups 37 and 38, LPS 0.35 μg/kg): did not affect
IL-1β secreted ([4]; Psen2 mutation microglia (Group 20), Nig(+)/ATP(−), nigericin 10 μM 40 min): 946.122 pg/mL
IL-1β secreted ([4]; Psen2 mutation microglia (Group 22), Nig(−)/ATP(+), ATP 5 mM 40 min): 1186.118 pg/mL
production of IL-1β (in words) ([4]; across all the groups (WT and Psen2 mutation microglia), LPS plus nigericin or ATP): no impacts
Inflammatory cytokine expression Ccl2 (mRNA) [5, 14]: 0.670 fold
Inflammatory cytokine expression Ccl5 (mRNA) [5, 14]: 0.730 fold
Inflammatory cytokine expression Cxcl1 (mRNA) [5, 14]: 0.692 fold
Inflammatory cytokine expression Il-6 (mRNA) [5, 14]: 0.538 fold
Inflammatory cytokine expression Tnf (mRNA) [5, 14]: 1.020 fold
mRNA expression of IL-6, CXCL1, CCL2, and CCL5 (in words) [5, 11]: decrease the mRNA expression
mRNA level of TNF-α (in words) ([5]; across all the groups (WT and KI/+ microglia), LPS): no impacts
side effect on mortality [6]: increasing the mortality rate
Secreted inflammatory cytokine CCL2 [7, 15]: 1645.882 pg/mL
Secreted inflammatory cytokine CCL5 [7, 15]: 1818.188 pg/mL
Secreted inflammatory cytokine CXCL1 [7, 15]: 1528.621 pg/mL
Secreted inflammatory cytokine IL-6 [7, 15]: 1336.446 pg/mL
Secreted inflammatory cytokine TNF-α [7, 15]: 1352.738 pg/mL
anti-inflammatory effect after fAβ42 (in words) ([7]; microglia from Psen2 mutation mouse model (group 26), 0.5 μM chlorpromazine): exhibited an anti-inflammatory effect
levels of TNF-α after fAβ42 (in words) ([7]; microglia from wild-type mice and Psen2 mutation model): no impacts
Inflammatory cytokine secreted CCL2 (serum) [8, 16]: 107.403 pg/mL
Inflammatory cytokine secreted CCL5 (serum) [8, 16]: 93.240 pg/mL
Inflammatory cytokine secreted CXCL1 (serum) [8, 16]: 173.999 pg/mL
Inflammatory cytokine secreted IL-6 (serum) [8, 16]: 44.280 pg/mL
Inflammatory cytokine secreted TNF-α (serum) [8, 16]: 71.248 pg/mL
production of the circadian clock-controlled cytokines in serum (in words) ([8]; Psen2 mutation mice, group 40 vs 39, LPS 0.35 μg/kg): remarkably repressed
